Source: patent publication US7923429B2, “Treatment for CD5+ B cell lymphoma” (3M Innovative Properties Company, priority 2003, dated 2011)

Key:
CLL cells [1] = experiment: Costimulatory molecule expression by activated CLL cells (flow cytometry); format: cell-based, human
Procedure: Blood samples: Heparinized blood (30-40 mL) was collected from consenting CLL patients (diagnosed by a persistent elevation of CD19^+CD5^+ IgM^lo lymphocytes (Rozman and Montserrat, New Engl. J. Med. 1995; 333:1052-1057)). All patients were untreated at the time of analysis. Protocols were approved by the appropriate Institutional Review Board.
Cell purification: CLL and T cells were isolated from fresh blood by negative selection (RosetteSep, StemCell Technologies, Vancouver, BC) as described by Gitelson et al. (Gitelson et al., Clin. Cancer Res. 2003; 99:1656-1665).
Activation of CLL cells: Purified CLL cells (1.5×10^6 cells/mL) were cultured in serum-free AIM-V medium plus 2-mercaptoethanol (2-ME, 5×10^−5 M) (Sigma Chemical Co.) in 6- or 24-well plates (Becton-Dickinson Labware, Franklin Lake, N.J.) for 3-4 days at 37° C. in 5% CO2. CLL cells were activated by adding the Negative Control compound (1 μg/mL), IRM1 (1 μg/mL), IL-2 (5000 U/mL), PDB (100 ng/mL), or bryostatin ([…]), as appropriate.
Flow cytometry: Cell staining was performed as described by Gitelson et al. (Gitelson et al., Clin. Cancer Res. 2003; 99:1656-1665).
CLL cells from the indicated number of patients were cultured in IRM1 (1 μg/mL) for 3-4 days, and then assayed for expression of the costimulatory molecules indicated on the x-axis (at an intensity greater than the first decade of log fluorescence) of FIG. 1A. The percentage of cells that expressed each costimulatory molecule and the mean fluorescence intensity (MFI) of expression were measured by flow cytometry. The “fold-increase” was then calculated from the ratio of these measurements to the percentage and MFI of control cells cultured without activating agents. […]
CLL cells were isolated and cultured alone or with IL-2 (5000 U/mL), IRM1 (1 μg/mL), or both IL-2 and IRM1 for 3-4 days. The expression of CD80, CD86, CD54, and CD83 was then determined by flow cytometry.
CD80, CD83, CD54, and CD86 expression were then determined by flow cytometry.

CLL cells [2] = experiment: Elimination of CLL cells by autologous T cells in co-culture; format: cell-based, human; conditions: alone or in combination with IL-2 and/or bryostatin; 1:1 CLL:T cells, 5 days
Procedure: CLL cells and T cells were isolated from a CLL patient, suspended at concentrations of 10^6 cells/mL and mixed in a 1:1 ratio. The cell mixtures were cultured alone, or in the presence of IL-2, IL-2 and IRM1, bryostatin, bryostatin and IL-2, bryostatin and IRM1, or bryostatin, IL-2, and IRM1. In FIG. 5A, after 5 days, the percentages of CD5^+ CD19^+ tumor cells (indicated by the numbers in the right upper quadrants of the dot-plots) and CD5^+ CD19^− T cells were determined by flow cytometry. In FIG. 5B, these percentages and the total numbers of viable cells (determined by manual counting in a hemocytometer) were used to calculate the remaining absolute numbers of CLL cells in the cultures.

[3] = system: lymphomatous skin deposits associated with chronic lymphocytic leukemia; experiment: Topical treatment of lymphomatous skin deposits in a CLL patient; format: in vivo, human; conditions: topical IRM2; count at beginning 36×10^6 cells/mL
From the text: A person was diagnosed with Rai Stage 0 CLL on the basis of a persistent elevated count of circulating monoclonal CD19^+ CD5^+ IgM^lo lymphocytes, determined by flow cytometry. CD38 was expressed by 45% of circulating CLL cells. The white blood cell counts at the beginning and end of treatment with IRM2 were 36×10^6 cells/mL and 45×10^5 cells/mL, respectively. Other systemic chemotherapy, steroids, or radiation had not been administered previously.
Additionally, the patient reported having recurrent nodular, erythematous lesions on their hands and arms for approximately eight years. The lesions were usually removed by treatment with liquid nitrogen. At the time they were diagnosed with CLL, they had several such lesions over their upper back (FIG. 8A) and arms. One lesion was biopsied and found to contain a diffuse atypical lymphoid dermal infiltrate consisting of many small, round lymphocytes, without epidermotropism.
A 5% cream of IRM2 was applied to the affected area three times per week.
Administration of 5% IRM2 cream was increased to once per day.

[4] = system: T cells from CLL patients; experiment: Mixed lymphocyte response: T cell proliferation stimulated by activated, irradiated CLL cells; format: cell-based, human; conditions: CLL cells activated 3-4 days, MLR 5-6 days, alamar blue
From the text: Mixed Lymphocyte Responses (MLRs): T cells were isolated from CLL patients and adjusted to 5×10^5 cells/mL in AIM-V medium. Activated CLL cells were washed at least 4 times to remove residual immunomodulators, irradiated (2500 cGy) and suspended at 5×10^5 cells/mL (or lower concentrations) in AIM-V. Responders and stimulators were then mixed in a 1:1 (vol:vol) ratio and cultured in 96-well round bottom plates (Becton Dickinson Labware, Franklin Lake, N.J.) without additional cytokines or serum. Proliferation was measured 4-6 days later using a colorimetric assay (Gitelson et al., Clin Cancer Res. 2003; 99:1656-1665; and Ahmed et al., J. Immunol. Methods. 1994; 170:211-224).
CLL cells were purified from individual patients and cultured alone or with IL-2, IRM1, IL-2 and IRM1, PDB, PDB and IL-2, PDB and IRM1, or PDB, IL-2, and IRM1. After 3-4 days, these cells were harvested, washed extensively, irradiated (2500 cGy) and used to stimulate allogenic or autologous T cells from CLL patients (obtained at the same time as the CLL cells and rested in culture until added to the Mixed Lymphocytic Response (MLR) assay) after 5-6 days of culture, alamar blue was added and proliferation was measured in an optical density calorimetric microplate reader at wavelengths of 540 (reduced state) and 595 (oxidized state). […]

CCOCc1nc2c(N)nc3c(c2n1CC(C)(C)O)CCCC3.O [IRM1, 4-amino-2-(ethoxymethyl)-α,α-dimethyl-6,7,8,9-tetrahydro-1H-imidazo[4,5-c]quinoline-1-ethanol hydrate]
dependence of ICOS-L expression on signaling (CLL cells [1]; IL-2 5000 U/mL, IRM1 1 μg/mL): relatively independent | expression of 4-1BBL and PDL-1 (CLL cells [1]; IL-2 5000 U/mL, IRM1 1 μg/mL, less than CD80, CD86, CD54): increased somewhat | effect on CD80 compared with effect on CD86 (CLL cells [1]; IRM1 1 μg/mL): greater | potency as single agent in increasing CD80 and CD86 expression, relative to IL-2 (CLL cells [1]; IRM1 1 μg/mL vs IL-2 5000 U/mL, 3-4 days): more potent than IL-2 | CD80, CD86, and CD54 expression (CLL cells [1]; IRM1 1 μg/mL, 3-4 days): especially strong effects | ICOS-L expression (CLL cells [1]; IRM1 1 μg/mL, 3-4 days): little effect | MFI of CD80, CD86, CD54, and CD83 (CLL cells [1]; IRM1 1 μg/mL, 3-4 days): increased the expression of all four | expression of CD83, 4-1BBL, and PDL-1 (CLL cells [1]; IRM1 1 μg/mL, 3-4 days): increased | patients whose CLL cells showed increased expression of CD54, CD80, and CD86 (CLL cells [1]; IRM1 1 μg/mL, 3-4 days, n=31): all patients studied | percentage of CLL cells that expressed CD80 and CD86, and MFI of expression (CLL cells [1]; single agent, IL-2 5000 U/mL or IRM1 1 μg/mL, 3-4 days): increased | killing of CLL cells by autologous T cells in vitro (CLL cells [2]): induced autologous T cells to kill CLL cells

CC(C)Cn1cnc2c(N)nc3ccccc3c21 [IRM2, 1-(2-methylpropyl)-1H-imidazo[4,5-c]quinolin-4-amine]
white blood cell count at end of treatment [3]: 45×10^5 cells/mL

CCCC(=O)O[C@@H]1[C@@H](C)[C@@]2(O)[C@@H](C=C(CO)C[C@]3(O)C(=O)C(C)=C[C@@H]23)[C@@H]2C(C)(C)[C@]12OC(=O)CCC [PDB, Phorbol dibutyrate, reference compound]
CD54 and ICOS-L expression (CLL cells [1]; PDB alone, 100 ng/mL): not affected greatly | expression of 4-1BBL and PDL-1 (CLL cells [1]; PDB alone, 100 ng/mL): increased | CLL cells expressing CD83 (CLL cells [1]; PDB alone, 100 ng/mL, 3-4 days): ~90% | number of CD80+ and CD86+ CLL cells (CLL cells [1]; PDB alone, 100 ng/mL, CD86+ more than CD80+): increased | ability of activated CLL cells to stimulate T cell proliferation [4]: weak stimulators

poly (I:C) [reference compound]
costimulatory molecule expression (CD80, CD86) by CLL cells (CLL cells [1]; 100 μg/mL, 48 hours): rarely affected

CC(C)Cn1cnc2c(O)nc3ccccc3c21 [Negative Control, 4-hydroxy-1-isobutyl-1H-imidazo[4,5-c]quinoline, reference compound]
effects on CLL cells (CLL cells [1]; 1 μg/mL, 3-4 days culture): did not have measurable effects
